Common to all, as to type: in vivo
The test system of one data set is Monochoria vaginalis. As to the kind of experiment: Test Example 1: herbicidal activity, application before weed generation in submerged conditions (symbol C). To be noted: application herbicide amount 320 g/ha. The method, boiled down:
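Weed control was rated three weeks after treatment on a 0–5 scale, from 5% or lower up to 90% or more. Pre-emergence water-surface application of diluted emulsion at a predetermined rate was made on the day of sowing, in flooded (4 cm water) pots containing rice seedlings, kept at 25–30 °C under glass.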

Another data set deals with transplanted rice plant. Briefly: Test Example 1: effect on crop, application before weed generation in submerged conditions (symbol a). To be noted: application herbicide amount 320 g/ha. The method, boiled down: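 Rice at 2.5 leaf stage transplanted into submerged soil (4 cm depth) sown with three weed species; herbicide applied before weed emergence.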
Another data set relates to Leptochloa chinensis. As to the kind of experiment: Test Example 3: herbicidal effect by foliage application, Wagner pot (symbol D). Conditions: application herbicide amount 320 g/ha. The method, boiled down:
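Scoring took place 3 weeks after application, using fixed criteria. Plants had been raised from seed for 14 days at 25 to 30 °C in submerged alluvial soil before a diluted emulsion of the test compound was sprayed uniformly on the leaves.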

The subject of a further data set is Setaria viridis. Briefly: Test Example 4: herbicidal effect by soil treatment (symbol G). To be noted: application herbicide amount 320 g/ha. The procedure, abridged:
(§1)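 Seeds were sown in sterilized diluvial soil, covered with about 1.5 cm of soil, and the soil surface was sprayed with a water-diluted emulsion of the compound at a predetermined rate. Plants grew in a greenhouse at 25° C. to 30° C.; effects were scored visually 3 weeks after application.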

The next data set has as its system Avena fatua. As to the kind of experiment: Test Example 4: herbicidal effect by soil treatment (symbol I). Conditions: application herbicide amount 320 g/ha. The method, boiled down:
as §1

In another data set the test system is Alopecurus myosuroides. As to the kind of experiment: Test Example 4: herbicidal effect by soil treatment (symbol J). To be noted: application herbicide amount 320 g/ha. The method, boiled down: as §1
The test system of another data set is Apera spica-venti. Briefly: Test Example 4: herbicidal effect by soil treatment (symbol L). Conditions: application herbicide amount 320 g/ha. The procedure, abridged:
as §1

The subject of another data set is Galium spurium. As to the kind of experiment: Test Example 4: herbicidal effect by soil treatment (symbol Q). Conditions: application herbicide amount 320 g/ha. The procedure, abridged:
as §1

The test system of data set [1] is Echinochloa crus-galli var. crus-galli. Briefly: Test Example 5: herbicidal effect by foliage application, plastic box (symbol H). Conditions: 320 g/ha, 3 weeks after application. The procedure, abridged:
(§2)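 Post-emergence spray; diluvial soil (sterilized), ~1.5 cm seed cover; greenhouse 25–30° C; 14-day-old plants; water-diluted emulsion at predetermined dose; visual score at 3 wk post-treatment.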

The test system of another data set is Lolium multiflorum Lam. Briefly: Test Example 5: herbicidal effect by foliage application, plastic box (symbol K). To be noted: 320 g/ha, 3 weeks after application. The method, boiled down:
as §2

The subject of a further data set is Abutilon theophrasti. Briefly: Test Example 5: herbicidal effect by foliage application, plastic box (symbol M). Conditions: 320 g/ha, 3 weeks after application. The procedure, abridged:
as §2

For another data set, the system named is Amaranthus retroflexus. As to the kind of experiment: Test Example 5: herbicidal effect by foliage application, plastic box (symbol N). Conditions: 320 g/ha, 3 weeks after application. The procedure, abridged: as §2
A further data set concerns Chenopodium album. As to the kind of experiment: Test Example 5: herbicidal effect by foliage application, plastic box (symbol O). To be noted: 320 g/ha, 3 weeks after application. The procedure, abridged: as §2
The test system of another data set is Stellaria media. As to the kind of experiment: Test Example 5: herbicidal effect by foliage application, plastic box (symbol P). To be noted: 320 g/ha, 3 weeks after application. The procedure, abridged: as §2
The test system of the next data set is corn. Briefly: Test Example 5: effect on crop by foliage application, plastic box (symbol c). Conditions: 320 g/ha, 3 weeks after application. The procedure, abridged: (§3)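 Greenhouse culture at 25° C. to 30° C. followed spot-like sowing into sterilized diluvial soil, with seed covered by roughly 1.5 cm of soil.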
The next data set relates to rapeseed. As to the kind of experiment: Test Example 5: effect on crop by foliage application, plastic box (symbol g). Conditions: 320 g/ha, 3 weeks after application. The method, boiled down: as §3

Consider `COCC(CC1CC(O)=C(c2c(C)cc(C)cc2C)C1=O)=NOC` (stereo not shown) [1-040], for which, in the data set with Monochoria vaginalis, the “Herbicidal effect grade, C: Monochoria vaginalis” value (“Herbicidal effect grade, C” for short) was 0 (Herbicidal ratio of 5% or lower (almost no effect)). The “Effect grade on crop, a: transplanted rice plant” value (“Effect grade on crop” below) in the data set with transplanted rice plant is 4 (Herbicidal ratio of 70% or higher and lower than 90%). The “herbicidal effect on D (Leptochloa chinensis), grade 0-5” value (shortened to “herbicidal effect on D”) with Leptochloa chinensis was 4 (Herbicidal ratio of 70% or higher and lower than 90%). Moreover, the “G (Setaria viridis) herbicidal effect grade” value in the data set on Setaria viridis is 4 (Herbicidal ratio of 70% or higher and lower than 90%). The “I (Avena fatua) herbicidal effect grade” value with Avena fatua is 3 (Herbicidal ratio of 40% or higher and lower than 70%). Besides, in the data set with Alopecurus myosuroides, the “J (Alopecurus myosuroides) herbicidal effect grade” value is 4 (Herbicidal ratio of 70% or higher and lower than 90%). The “L (Apera spica-venti) herbicidal effect grade” value in the data set on Apera spica-venti is listed as 5 (Herbicidal ratio of 90% or more (almost completely withered)). In addition, the “Q (Galium spurium) herbicidal effect grade” value with Galium spurium was 0 (Herbicidal ratio of 5% or lower (almost no effect)). Besides, in data set [1], the “H: Echinochloa crus-galli var. crus-galli, herbicidal effect grade” value is given as 5 (Herbicidal ratio of 90% or more (almost completely withered)). The “K: Lolium multiflorum Lam., herbicidal effect grade” value in the data set on Lolium multiflorum Lam. is recorded as 5 (Herbicidal ratio of 90% or more (almost completely withered)). Also, in the data set with Abutilon theophrasti, the “M: Abutilon theophrasti, herbicidal effect grade” value (“M: Abutilon theophrasti” for short) was 1 (Herbicidal ratio of 5% or higher and lower than 20%). Also, in the data set with Amaranthus retroflexus, the “N: Amaranthus retroflexus, herbicidal effect grade” value (“N: Amaranthus retroflexus” below) was 0 (Herbicidal ratio of 5% or lower (almost no effect)). In addition, in the data set on Chenopodium album, the “O: Chenopodium album, herbicidal effect grade” value (“O: Chenopodium album” for short) is recorded as 0 (Herbicidal ratio of 5% or lower (almost no effect)). Also, the “P: Stellaria media, herbicidal effect grade” value (“P: Stellaria media” for short) in the data set with Stellaria media is 0 (Herbicidal ratio of 5% or lower (almost no effect)). The “c: corn, effect on crop grade” value in the data set with corn is 3 (Herbicidal ratio of 40% or higher and lower than 70%). Further, the “g: rapeseed, effect on crop grade” value in the data set on rapeseed was 4 (Herbicidal ratio of 70% or higher and lower than 90%).

On to `CC(CC1CC(O)=C(c2c(C)cc(C)cc2C)C1=O)=NOCc1ccccc1F` (stereo not shown) [1-026], for which, in the data set on Monochoria vaginalis, the “Herbicidal effect grade, C” value was 5 (Herbicidal ratio of 90% or more (almost completely withered)). For the same compound, the “Effect grade on crop” value in the data set on transplanted rice plant is on record as 5 (Herbicidal ratio of 90% or more (almost completely withered)). Further, in the data set with Leptochloa chinensis, the “herbicidal effect on D” value is given as 5 (Herbicidal ratio of 90% or more (almost completely withered)). Also, the “G (Setaria viridis) herbicidal effect grade” value with Setaria viridis is 5 (Herbicidal ratio of 90% or more (almost completely withered)). In the data set with Avena fatua, the “I (Avena fatua) herbicidal effect grade” value is 3 (Herbicidal ratio of 40% or higher and lower than 70%). For the same compound, in the data set with Alopecurus myosuroides, the “J (Alopecurus myosuroides) herbicidal effect grade” value was 5 (Herbicidal ratio of 90% or more (almost completely withered)). Besides, the “L (Apera spica-venti) herbicidal effect grade” value in the data set with Apera spica-venti was 5 (Herbicidal ratio of 90% or more (almost completely withered)). In addition, the “Q (Galium spurium) herbicidal effect grade” value with Galium spurium is listed as 0 (Herbicidal ratio of 5% or lower (almost no effect)). In [1], the “H: Echinochloa crus-galli var. crus-galli, herbicidal effect grade” value is 4 (Herbicidal ratio of 70% or higher and lower than 90%). Besides, in the data set with Lolium multiflorum Lam., the “K: Lolium multiflorum Lam., herbicidal effect grade” value was 5 (Herbicidal ratio of 90% or more (almost completely withered)). The “M: Abutilon theophrasti” value in the data set on Abutilon theophrasti was 0 (Herbicidal ratio of 5% or lower (almost no effect)). In addition, the “N: Amaranthus retroflexus” value in the data set with Amaranthus retroflexus is on record as 0 (Herbicidal ratio of 5% or lower (almost no effect)). In the data set on Chenopodium album, the “O: Chenopodium album” value is 3 (Herbicidal ratio of 40% or higher and lower than 70%). Moreover, the “P: Stellaria media” value in the data set on Stellaria media is 1 (Herbicidal ratio of 5% or higher and lower than 20%). Besides, the “c: corn, effect on crop grade” value in the data set on corn is 3 (Herbicidal ratio of 40% or higher and lower than 70%). Moreover, the “g: rapeseed, effect on crop grade” value with rapeseed was 4 (Herbicidal ratio of 70% or higher and lower than 90%).

`CC(CC1CC(O)=C(c2c(C)cc(C)cc2C)C1=O)=NOCC1CC1` (stereo not shown) [1-024]: in the data set on Monochoria vaginalis, the “Herbicidal effect grade, C” value was 2 (Herbicidal ratio of 20% or higher and lower than 40%). Besides, the “Effect grade on crop” value in the data set on transplanted rice plant is 5 (Herbicidal ratio of 90% or more (almost completely withered)). Moreover, in the data set on Leptochloa chinensis, the “herbicidal effect on D” value was 5 (Herbicidal ratio of 90% or more (almost completely withered)). Besides, the “G (Setaria viridis) herbicidal effect grade” value in the data set with Setaria viridis is 3 (Herbicidal ratio of 40% or higher and lower than 70%). The “I (Avena fatua) herbicidal effect grade” value in the data set with Avena fatua is 4 (Herbicidal ratio of 70% or higher and lower than 90%). Besides, the “J (Alopecurus myosuroides) herbicidal effect grade” value in the data set on Alopecurus myosuroides is 5 (Herbicidal ratio of 90% or more (almost completely withered)). Besides, the “L (Apera spica-venti) herbicidal effect grade” value in the data set with Apera spica-venti is recorded as 5 (Herbicidal ratio of 90% or more (almost completely withered)). In addition, in the data set with Galium spurium, the “Q (Galium spurium) herbicidal effect grade” value is 0 (Herbicidal ratio of 5% or lower (almost no effect)). The “H: Echinochloa crus-galli var. crus-galli, herbicidal effect grade” value in data set [1] is reported as 5 (Herbicidal ratio of 90% or more (almost completely withered)). The “K: Lolium multiflorum Lam., herbicidal effect grade” value in the data set with Lolium multiflorum Lam. was 5 (Herbicidal ratio of 90% or more (almost completely withered)). In the data set with Abutilon theophrasti, the “M: Abutilon theophrasti” value was 1 (Herbicidal ratio of 5% or higher and lower than 20%). In addition, the “N: Amaranthus retroflexus” value in the data set with Amaranthus retroflexus is given as 0 (Herbicidal ratio of 5% or lower (almost no effect)). In addition, in the data set with Chenopodium album, the “O: Chenopodium album” value was 1 (Herbicidal ratio of 5% or higher and lower than 20%). Moreover, in the data set with Stellaria media, the “P: Stellaria media” value is 3 (Herbicidal ratio of 40% or higher and lower than 70%). In the data set with corn, the “c: corn, effect on crop grade” value was 5 (Herbicidal ratio of 90% or more (almost completely withered)). The “g: rapeseed, effect on crop grade” value with rapeseed was 4 (Herbicidal ratio of 70% or higher and lower than 90%).

On to `CON=C(CC1CC(O)=C(c2c(C)cc(C)cc2C)C1=O)C1CC1` (stereo not shown) [1-046], for which, in the data set with Monochoria vaginalis, the “Herbicidal effect grade, C” value was 4 (Herbicidal ratio of 70% or higher and lower than 90%). In addition, in the data set with transplanted rice plant, the “Effect grade on crop” value is 5 (Herbicidal ratio of 90% or more (almost completely withered)). The “herbicidal effect on D” value in the data set on Leptochloa chinensis is 5 (Herbicidal ratio of 90% or more (almost completely withered)). In the data set on Setaria viridis, the “G (Setaria viridis) herbicidal effect grade” value is 4 (Herbicidal ratio of 70% or higher and lower than 90%). Further, in the data set with Avena fatua, the “I (Avena fatua) herbicidal effect grade” value was 5 (Herbicidal ratio of 90% or more (almost completely withered)). Also, in the data set with Alopecurus myosuroides, the “J (Alopecurus myosuroides) herbicidal effect grade” value was 5 (Herbicidal ratio of 90% or more (almost completely withered)). Also, the “L (Apera spica-venti) herbicidal effect grade” value in the data set on Apera spica-venti is given as 5 (Herbicidal ratio of 90% or more (almost completely withered)). In addition, in the data set on Galium spurium, the “Q (Galium spurium) herbicidal effect grade” value was 0 (Herbicidal ratio of 5% or lower (almost no effect)). Also, the “H: Echinochloa crus-galli var. crus-galli, herbicidal effect grade” value in data set [1] is 5 (Herbicidal ratio of 90% or more (almost completely withered)). The “K: Lolium multiflorum Lam., herbicidal effect grade” value with Lolium multiflorum Lam. is on record as 5 (Herbicidal ratio of 90% or more (almost completely withered)). Also, in the data set with Abutilon theophrasti, the “M: Abutilon theophrasti” value was 3 (Herbicidal ratio of 40% or higher and lower than 70%). Further, in the data set with Amaranthus retroflexus, the “N: Amaranthus retroflexus” value is 2 (Herbicidal ratio of 20% or higher and lower than 40%). Also, in the data set with Chenopodium album, the “O: Chenopodium album” value was 2 (Herbicidal ratio of 20% or higher and lower than 40%). In addition, the “P: Stellaria media” value in the data set on Stellaria media was 2 (Herbicidal ratio of 20% or higher and lower than 40%). Moreover, the “c: corn, effect on crop grade” value in the data set with corn is reported as 5 (Herbicidal ratio of 90% or more (almost completely withered)). Moreover, the “g: rapeseed, effect on crop grade” value in the data set with rapeseed was 4 (Herbicidal ratio of 70% or higher and lower than 90%).
